Data on 5 compounds can be found in PMC3830930 (Clinical pharmacology and therapeutics, 2011).

Data set [1] relates to CYP3A4/5. To be noted: for AUC1’-OH/AUC4-OH ratio: range over the three CYP3A5 genotype groups.
Data set [2] addresses recombinant CYP3A4 (rCYP3A4) (Homo sapiens, UniProt P08684).
Data set [3] relates to CYP3A4/5. The data set can be described thus: clinical. To be noted: human, in vivo.
Data set [4] deals with UDP-glucuronosyltransferases (UGTs) in pooled HLMs. The data set can be described thus: Glucuronidation of hydroxymidazolams in HLMs. The class given is in vitro ADME, human.
For data set [5] the following is noted: cited from earlier work.
The next data set concerns plasma protein. The conditions noted are these: cited from earlier work.

Read-outs that look alike come from different tables or passages of the source. Marks after values point to notes of the source that are not given here.

Chain of recombinant CYP3A4 (rCYP3A4) (P08684 2-503 limits assumed): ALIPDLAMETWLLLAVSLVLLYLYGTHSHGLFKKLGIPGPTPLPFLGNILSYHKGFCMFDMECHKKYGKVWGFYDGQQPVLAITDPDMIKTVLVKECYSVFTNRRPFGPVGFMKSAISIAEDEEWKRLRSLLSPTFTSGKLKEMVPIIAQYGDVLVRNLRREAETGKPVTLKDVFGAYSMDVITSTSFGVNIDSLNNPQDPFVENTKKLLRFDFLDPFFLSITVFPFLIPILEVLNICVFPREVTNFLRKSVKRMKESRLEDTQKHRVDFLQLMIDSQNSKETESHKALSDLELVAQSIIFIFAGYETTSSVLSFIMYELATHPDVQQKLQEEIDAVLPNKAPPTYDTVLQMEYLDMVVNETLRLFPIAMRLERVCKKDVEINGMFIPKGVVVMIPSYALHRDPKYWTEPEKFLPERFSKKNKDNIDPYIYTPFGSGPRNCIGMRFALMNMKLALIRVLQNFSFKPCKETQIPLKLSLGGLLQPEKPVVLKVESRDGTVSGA

Take `OCc1ncc2n1-c1ccc(Cl)cc1C(c1ccccc1F)=NC2` [1’-hydroxymidazolam]: the “AUC1’-OH/AUC4-OH ratio” value in the data set with CYP3A4/5 [1] (control state) is listed as 6.3–9.6; with CYP3A4/5 [1] (with fluconazole) it was 2.9–4.9. The “percent of extrapolated AUC” value in the data set on CYP3A4/5 [1] (extrapolation to infinity, mean ± S.D.) is 18.4 ± 10.6%. Moreover, the “Ki of 1’-OH-MDZ formation (substrate inhibition)” value in data set [2] was 1480 ± 615 ^a µM.

`Cc1ncc2n1-c1ccc(Cl)cc1C(c1ccccc1F)=NC2O` (centres unmarked) [4-hydroxymidazolam]: the “percent of extrapolated AUC” value with CYP3A4/5 [1] (human, in vivo) was 19.0 ± 8.3%. In addition, the area under the curve (AUC) in the data set on CYP3A4/5 [3] (iv, 1 mg, AUC4-OH) came to 0.0022 ± 0.0006 µM·h.

Consider `OC(Cn1cncn1)(Cn1cncn1)c1ccc(F)cc1F` [fluconazole], for which the “effect on the glucuronidation of either hydroxymidazolam metabolite” value in data set [4] (pooled HLMs, substrate 1 µM, even at 300 µM fluconazole) was “no effect”. For the same compound, the “IC50 for 1’-OH-MDZ lower than that for 4-OH-MDZ” value in data set [2] (human, pH 7.4) came out at 50%. Also, the “elimination t1/2” value in data set [5] is listed as ~ 32 hrs. In addition, the plasma protein binding in the data set on plasma protein is on record as 11–12%.

In the case of `Cc1ncc2n1-c1ccc(Cl)cc1C(c1ccccc1F)=NC2` [midazolam, reference compound], in the data set on CYP3A4/5 [1] (human, in vivo), the “percent of extrapolated AUC” value is listed as 13.0 ± 9.5%. Moreover, the AUC with CYP3A4/5 [3] (AUCMDZ) worked out at 0.227 µM·h; with CYP3A4/5 [3] (iv, 1 mg, AUCMDZ) it was 0.16 ± 0.035 µM·h.

Take hecogenin: the “effect on glucuronide formation from 1’-OH-MDZ or 4-OH-MDZ” value in data set [4] is “decreased glucuronide formation significantly”.
